According to ChEMBL document CHEMBL3616449, “Synthesis, in vitro and in silico antimalarial activity of 7-chloroquinoline and 4H-chromene conjugates” (Bioorg Med Chem Lett, 2015):

Tests used:
[1] = Selectivity index, ratio of CC50 for african green monkey Vero cells to IC50 for chloroquine-resistant Plasmodium falciparum K1; type: functional
Plasmodium falciparum [2] = test: Antimalarial activity against chloroquine-sensitive Plasmodium falciparum 3D7 incubated for 72 hrs by SYBR Green 1 assay; type: functional, organism-based; details: 3D7, 72 h
Plasmodium falciparum [3] = test: Antimalarial activity against chloroquine-resistant Plasmodium falciparum K1 incubated for 72 hrs by SYBR Green 1 assay; type: functional, organism-based; details: K1, 72 h
[4] = Selectivity index, ratio of CC50 for african green monkey Vero cells to IC50 for chloroquine-sensitive Plasmodium falciparum 3D7; type: functional
[5] = Cytotoxicity against african green monkey Vero cells after 72 hrs by MTT assay; type: cell-based; details: chlorocebus sabaeus

Structure (SMILES)	Ratio CC50/IC50 [1]	IC50 (Plasmodium falciparum [2])	IC50 (Plasmodium falciparum [3])	Ratio CC50/IC50 [4]	CC50 at 72 h [5]
CNC1=C([N+](=O)[O-])C(c2ccc(N3CCN(c4ccnc5cc(Cl)ccc45)CC3)cc2)c2ccccc2O1 (stereo not drawn)	>59.2	1.11 µM	3.38 µM	>180.2	> 200 µM
CNC1=C([N+](=O)[O-])C(c2ccc(N3CCN(c4ccnc5cc(Cl)ccc45)CC3)cc2)c2cc(Cl)ccc2O1 (stereo not drawn)	24.9	1.37 µM	2.99 µM	54.3	74.5 µM
CNC1=C([N+](=O)[O-])C(c2ccc(N3CCN(c4ccnc5cc(Cl)ccc45)CC3)cc2)c2cc(Br)ccc2O1 (stereo not drawn)	50.6	1.88 µM	1.75 µM	47.1	88.6 µM
CNC1=C([N+](=O)[O-])C(c2ccc(N3CCN(c4ccnc5cc(Cl)ccc45)CC3)cc2)c2cc([N+](=O)[O-])ccc2O1 (stereo not drawn)	17.9	0.62 µM	1.78 µM	51.4	31.9 µM
CNC1=C([N+](=O)[O-])C(c2ccc(N3CCN(c4ccnc5cc(Cl)ccc45)CC3)cc2)c2cc(OC)ccc2O1 (stereo not drawn)	19.3	2.48 µM	4.25 µM	33	81.9 µM
CCOc1cccc2c1OC(NC)=C([N+](=O)[O-])C2c1ccc(N2CCN(c3ccnc4cc(Cl)ccc34)CC2)cc1 (stereo not drawn)	13.6	2.93 µM	2.95 µM	13.7	40.4 µM
CNC1=C([N+](=O)[O-])C(c2ccc(N3CCN(c4ccnc5cc(Cl)ccc45)CC3)cc2)c2cccc(OC)c2O1 (stereo not drawn)	9.1	2.47 µM	2.4 µM	8.8	21.8 µM
CNC1=C([N+](=O)[O-])C(c2ccc(N3CCN(c4ccnc5cc(Cl)ccc45)CC3)cc2)c2cc(Cl)cc(Cl)c2O1 (stereo not drawn)	67.4	3.92 µM	1.45 µM	24.9	97.8 µM
CNC1=C([N+](=O)[O-])C(c2ccc(N3CCN(c4ccnc5cc(Cl)ccc45)CC3)cc2)c2cc(Br)cc(Br)c2O1 (stereo not drawn)	>68.2	> 5 µM	2.93 µM	–	> 200 µM
CNC1=C([N+](=O)[O-])C(c2ccc(N3CCN(c4ccnc5cc(Cl)ccc45)CC3)cc2)c2c(C=O)c(C)cc(Cl)c2O1 (stereo not drawn)	96.5	2.34 µM	0.87 µM	35.8	84 µM
O=[N+]([O-])C1=C(NCc2ccccc2)Oc2ccccc2C1c1ccc(N2CCN(c3ccnc4cc(Cl)ccc34)CC2)cc1 (stereo not drawn)	<13.3	> 5 µM	> 5 µM	<13.3	66.5 µM
O=[N+]([O-])C1=C(NCCc2ccccc2)Oc2ccccc2C1c1ccc(N2CCN(c3ccnc4cc(Cl)ccc34)CC2)cc1 (stereo not drawn)	75.5	3.31 µM	1.74 µM	39.6	131 µM
CCCCNC1=C([N+](=O)[O-])C(c2ccc(N3CCN(c4ccnc5cc(Cl)ccc45)CC3)cc2)c2ccccc2O1 (stereo not drawn)	29.9	3.09 µM	3.57 µM	34.6	107 µM
CNC1=C([N+](=O)[O-])C(c2ccc(N3CCCN(c4ccnc5cc(Cl)ccc45)CC3)cc2)c2ccccc2O1 (stereo not drawn)	–	> 5 µM	> 5 µM	<18.3	91.4 µM
CNC1=C([N+](=O)[O-])C(c2ccc(N3CCCN(c4ccnc5cc(Cl)ccc45)CC3)cc2)c2cc(Cl)ccc2O1 (stereo not drawn)	155.2	0.29 µM	0.496 µM	265.4	77 µM
CNC1=C([N+](=O)[O-])C(c2ccc(N3CCCN(c4ccnc5cc(Cl)ccc45)CC3)cc2)c2cc(Br)ccc2O1 (stereo not drawn)	>157.5	2.24 µM	1.27 µM	>89.3	> 200 µM
Clc1ccc2c(N3CCN(c4ccccc4)CC3)ccnc2c1	71.7	2.69 µM	2.49 µM	66.3	179 µM
Clc1ccc2c(N3CCCN(c4ccccc4)CC3)ccnc2c1	33.1	3.98 µM	4.47 µM	37.1	148 µM
